This is an account of results in patent US11090304B2 (Amgen Inc., priority 2018, dated 2021).

The target in one experiment is GDP-bound KRAS protein (aa 1-169), containing both G12C and C118A amino acid substitutions (Homo sapiens, UniProt P01116, C118A/G12C). Nature of the experiment: Coupled nucleotide exchange assay (SOS-mediated, AlphaScreen). In kind it is biochemical. To be noted: 5 min compound pre-incubation.
Chain of GDP-bound KRAS protein (aa 1-169), containing both G12C and C118A amino acid substitutions (P01116 1-169 isoform P01116-2 G12C/C118A): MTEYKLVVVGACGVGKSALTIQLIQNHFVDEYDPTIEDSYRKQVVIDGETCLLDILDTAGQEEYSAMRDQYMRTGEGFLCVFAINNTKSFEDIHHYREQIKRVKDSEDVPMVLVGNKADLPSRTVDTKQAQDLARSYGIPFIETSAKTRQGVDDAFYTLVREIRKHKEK
Turning to `C=CC(=O)N1CCN(c2nc(=O)n(-c3ccccc3-c3ccccc3)c3nc(-c4c(O)cccc4F)c(Cl)cc23)[C@@H](C)C1` [Example 54-74, 1-([biphenyl]-2-yl)-6-chloro-7-(2-fluoro-6-hydroxyphenyl)-4-((2S)-2-methyl-4-(2-propenoyl)-1-piperazinyl) pyrido[2,3-d]pyrimidin-2(1H)-one], the “Coupled exchange IC50 (5 min)” value is 0.582 | nda μM. On the same count and under the same terms, for `C=CC(=O)N1CCN(c2nc(=O)n(-c3c(C(C)C)nc(C)nc3C(C)C)c3nc(-c4ccccc4F)c(Cl)cc23)[C@@H](C)C1` [Example 55-5, 6-chloro-7-(2-fluorophenyl)-1-(2-methyl-4,6-di(2-propanyl)-5-pyrimidinyl)-4-((2S)-2-methyl-4-(2-propenoyl)-1-piperazinyl)pyrido[2,3-d]pyrimidin-2(1H)-one] the value was 0.045 | nda μM; for `C=CC(=O)N1CCN(c2nc(=O)n(-c3c(Cl)ncnc3C(C)C)c3nc(-c4ccccc4F)c(Cl)cc23)[C@@H](C)C1` [Example 133, 6-Chloro-1-(4-chloro-6-(2-propanyl)-5-pyrimidinyl)-7-(2-fluorophenyl)-4-((2S)-2-methyl-4-(2-propenoyl)-1-piperazinyl)pyrido[2,3-d]pyrimidin-2(1H)-one], 0.119 | nda μM. The same measure, in the same setting: for `C=CC(=O)N1CCN(c2nc(=O)n(-c3c(C)ccnc3C(C)C)c3nc(-c4cc(N)ccc4F)c(F)cc23)[C@@H](C)C1` (single isomer, unassigned) [Example 58-6-2] the value was 0.236 | nda μM.

Another experiment concerns Phosphorylation of ERK1/2 in MIA PaCa-2 cells. Nature of the experiment: Phospho-ERK1/2 MSD assay in MIA PaCa-2 cells. It counts as cell-based. The settings on record: Homo sapiens, MIA PaCa-2, 2 h, read-out: p-ERK IC50 (2 h; MIA PaCa-2), 2 h compound treatment. How it is done: For compounds in Table 89, the following assay conditions were employed:
Phospho-ERK1/2 MSD Assay:
Sixteen hours prior to compound treatment, MIA PaCa-2 or A549 cells were seeded in 96-well cell culture plates at a density of 25,000 cells/well and incubated at 37° C., 5% CO2. A compound dose-response titration was diluted in growth media, added to appropriate wells of a cell culture plate, and then incubated at 37° C., 5% CO2 for 2 or 4 hours (see Table 15). Following compound treatment, cells were stimulated with 10 ng/mL EGF (Roche 11376454001) for 10 min, washed with ice-cold Dulbecco's phosphate-buffered saline, no Ca^2+ or Mg^2+ (ThermoFisher Scientific 14190144), and then lysed in RIPA buffer (50 mM Tris-HCl pH 7.5, 1% Igepal, 0.5% sodium deoxycholate, 150 mM NaCl, and 0.5% sodium dodecyl sulfate) containing protease inhibitors (Roche 4693132001) and phosphatase inhibitors (Roche 4906837001). Phosphorylation of ERK1/2 in compound-treated lysates was assayed using Phospho-ERK1/2 Whole Cell Lysate kits (Meso Scale Discovery K151DWD) according to the manufacturer's protocol. Assay plates were read on a Meso Scale Discovery Sector Imager 6000, and data were analyzed using a 4-parameter logistic model to calculate IC50 values.
With `C=CC(=O)N1CCN(c2nc(=O)n(-c3ccccc3-c3ccccc3)c3nc(-c4c(O)cccc4F)c(Cl)cc23)[C@@H](C)C1` [Example 54-74, 1-([biphenyl]-2-yl)-6-chloro-7-(2-fluoro-6-hydroxyphenyl)-4-((2S)-2-methyl-4-(2-propenoyl)-1-piperazinyl) pyrido[2,3-d]pyrimidin-2(1H)-one], the half-inhibitory concentration (IC50) came to 926 nM. The same measure, in the same setting: for `C=CC(=O)N1CCN(c2nc(=O)n(-c3c(C(C)C)nc(C)nc3C(C)C)c3nc(-c4ccccc4F)c(Cl)cc23)[C@@H](C)C1` [Example 55-5, 6-chloro-7-(2-fluorophenyl)-1-(2-methyl-4,6-di(2-propanyl)-5-pyrimidinyl)-4-((2S)-2-methyl-4-(2-propenoyl)-1-piperazinyl)pyrido[2,3-d]pyrimidin-2(1H)-one] the value was 31 nM; for `C=CC(=O)N1CCN(c2nc(=O)n(-c3c(Cl)ncnc3C(C)C)c3nc(-c4ccccc4F)c(Cl)cc23)[C@@H](C)C1` [Example 133, 6-Chloro-1-(4-chloro-6-(2-propanyl)-5-pyrimidinyl)-7-(2-fluorophenyl)-4-((2S)-2-methyl-4-(2-propenoyl)-1-piperazinyl)pyrido[2,3-d]pyrimidin-2(1H)-one], 198 nM. The same measure, in the same setting: for `C=CC(=O)N1CCN(c2nc(=O)n(-c3c(C)ccnc3C(C)C)c3nc(-c4cc(N)ccc4F)c(F)cc23)[C@@H](C)C1` (single isomer, unassigned) [Example 58-6-2] the value was 367 nM.

As for `C=CC(=O)N1CCN(c2nc(=O)n(-c3ccccc3C(C)C)c3nc(N4CCCC4)c(Cl)cc23)[C@@H](C)C1` [Example 69-3, 6-chloro-4-((2S)-2-methyl-4-(2-propenoyl)-1-piperazinyl)-1-(2-(2-propanyl)phenyl)-7-(1-pyrrolidinyl)pyrido[2,3-d]pyrimidin-2(1H)-one], the IC50 stood at 1700 nM. On the same count and under the same terms, for `C=CC(=O)N1CCN(c2nc(=O)n(-c3c(C)cccc3C(C)C)c3nc(-c4c(O)cccc4F)c(F)cc23)[C@@H](C)C1` [Example 58-18, 6-fluoro-7-(2-fluoro-6-hydroxyphenyl)-1-(2-methyl-6-(2-propanyl)phenyl)-4-((2S)-2-methyl-4-(2-propenoyl)-1-piperazinyl)pyrido[2,3-d]pyrimidin-2(1H)-one] the value was 272 nM; for `C=CC(=O)N1CCN(c2nc(=O)n(-c3c(C)ncnc3C(C)C)c3nc(-c4c(O)cccc4F)c(Cl)cc23)[C@@H](C)C1` [Example 55-14, 6-chloro-7-(2-fluoro-6-hydroxyphenyl)-1-(4-methyl-6-(2-propanyl)-5-pyrimidinyl)-4-((2S)-2-methyl-4-(2-propenoyl)-1-piperazinyl)pyrido[2,3-d]pyrimidin-2(1H)-one], 134 nM. Still for that read-out and setting: for `C=CC(=O)N1CCN(c2nc(C)c(-c3ccccc3C(C)C)c3nc(-c4ccccc4F)c(Cl)cc23)[C@@H](C)C1` [Example 85-4, 1-((3S)-4-(3-chloro-2-(2-fluorophenyl)-7-methyl-8-(2-(2-propanyl)phenyl)-1,6-naphthyridin-5-yl)-3-methyl-1-piperazinyl)-2-propen-1-one] the value was 10000 nM; for `C=CC(=O)N1CCN(c2nc(=O)n(-c3c(C(C)C)ncnc3C(C)C)c3nc(-c4c(O)cccc4F)c(Cl)cc23)[C@@H](C)C1` [Example 55-2], 25 nM; for `C=CC(=O)N1CCN(c2nc(CO)cc3nc(-c4ccccc4F)c(Cl)cc23)[C@@H](C)C1` [Example 150, 1-((3S)-4-(3-Chloro-2-(2-fluorophenyl)-7-(hydroxymethyl)-1,6-naphthyridin-5-yl)-3-methyl-1-piperazinyl)-2-propen-1-one], 3330 nM. Same read-out and setting: the same measure for `C=CC(=O)N1CCN(c2nc(C)c(-c3ccccc3C3CC3)c3nc(-c4ccccc4F)c(Cl)cc23)CC1` [Example 85-3, 1-(4-(3-chloro-8-(2-cyclopropylphenyl)-2-(2-fluorophenyl)-7-methyl-1,6-naphthyridin-5-yl)-1-piperazinyl)-2-propen-1-one]: 10000 nM; for `C=CC(=O)N1CCN(c2nc(=O)n(-c3c(C)ncnc3C(C)C)c3nc(-c4c(O)cccc4F)c(F)cc23)[C@@H](C)C1` [Example 58-11, 6-fluoro-7-(2-fluoro-6-hydroxyphenyl)-1-(4-methyl-6-(2-propanyl)-5-pyrimidinyl)-4-((2S)-2-methyl-4-(2-propenoyl)-1-piperazinyl)pyrido[2,3-d]pyrimidin-2(1H)-one]: 742 nM.

As to `C=CC(=O)N1CCN(c2nc(=O)n(-c3ccccc3C(C)C)c3nc(-c4ccccc4O)c(Cl)cc23)[C@@H](C)C1` [Example 54-43, 6-chloro-7-(2-hydroxyphenyl)-4-((2S)-2-methyl-4-(2-propenoyl)-1-piperazinyl)-1-(2-(2-propanyl)phenyl)pyrido [2,3-d]pyrimidin-2(1H)-one], the IC50 is 251 nM. Same read-out and setting: the same measure for `C=CC(=O)N1CCN(c2nc(=O)n(-c3c(C)cnn3C(C)C)c3nc(-c4c(O)cccc4F)c(Cl)cc23)[C@@H](C)C1` [Example 54-70, 6-chloro-7-(2-fluoro-6-hydroxyphenyl)-1-(4-methyl-1-(2-propanyl)-1H-pyrazol-5-yl)-4-((2S)-2-methyl-4-(2-propenoyl)-1-piperazinyl) pyrido[2,3-d]pyrimidin-2(1H)-one]: 88 nM; for `C=CC(=O)N1CCN(c2nc(=O)n(-c3c(C(C)C)ccnc3C)c3nc(-c4c(O)cccc4F)c(F)cc23)[C@@H](C)C1` [Example 58-15, 6-fluoro-7-(2-fluoro-6-hydroxyphenyl)-1-(2-methyl-4-(2-propanyl)-3-pyridinyl)-4-((2S)-2-methyl-4-(2-propenoyl)-1-piperazinyl)pyrido[2,3-d]pyrimidin-2(1H)-one]: 365 nM. The same measure, in the same setting: the same measure for `C=CC(=O)N1CCN(c2nc(=O)n(-c3c(C(C)C)ccnc3C)c3nc(-c4c(O)cccc4F)c(Cl)cc23)[C@@H](C)C1` [Example 54-17, 6-chloro-7-(2-fluoro-6-hydroxy-phenyl)-1-(2-methyl-4-(2-propanyl)-3-pyridinyl)-4-((2S)-2-methyl-4-(2-propenoyl)-1-piperazinyl) pyrido[2,3-d]pyrimidin-2(1H)-one]: 504 nM.

Staying with this experiment, now noted: Homo sapiens, MIA PaCa-2, 4 h, read-out: p-ERK IC50 (4 h; MIA PaCa-2), 4 h compound treatment.
Regarding `C=CC(=O)N1CCN(c2nc(=O)n(CC3(C(F)(F)F)CC3)c3nc(-c4ccccc4F)c(Cl)cc23)CC1` [Example 60-4, 6-chloro-7-(2-fluorophenyl)-4-(4-(2-propenoyl)-1-piperazinyl)-1-((1-(trifluoromethyl)cyclopropyl)methyl)pyrido[2,3-d]pyrimidin-2(1H)-one], the IC50 turned out to be 2250 nM.

Still in this experiment, the particulars now being: read-out: p-ERK IC50 (2 h; MIA PaCa-2), 2 h compound treatment.
In the case of `C=CC(=O)N1CCN(c2nc(=O)n(-c3ccccc3C(C)C)c3nc(-c4c(O)cccc4F)c(Cl)cc23)CC1` (single isomer, unassigned) [Example 60-24-2, (P)-6-chloro-7-(2-fluoro-6-hydroxyphenyl)-1-(2-(2-propanyl)phenyl)-4-(4-(2-propenoyl)-1-piperazinyl)pyrido[2,3-d]pyrimidin-2(1H)-one], the IC50 stood at 704 nM. The same measure, in the same setting: the same measure for `C=CC(=O)N1CCN(c2nc(=O)n(-c3c(C)cnn3C(C)C)c3nc(-c4c(O)cccc4F)c(Cl)cc23)[C@@H](C)C1` (single isomer, unassigned) [Example 54-71-2]: 179 nM; for `C=CC(=O)N1CCN(c2nc(=O)n(-c3c(C)ncnc3C(C)C)c3nc(-c4c(O)cccc4F)c(Cl)cc23)[C@@H](C)C1` (single isomer, unassigned) [Example 55-14-1]: 1090 nM. On the same count and under the same terms, the same measure for `C=CC(=O)N1CCN(c2nc(=O)n(-c3c(C)cccc3CC)c3nc(-c4c(O)cccc4F)c(Cl)cc23)[C@@H](C)C1` (single isomer, unassigned) [Example 55-8-1]: 45 nM.

Take `C=CC(=O)N1CCN(c2nc(=O)n(-c3c(C)cccc3CC)c3nc(-c4c(O)cccc4F)c(Cl)cc23)[C@@H](C)C1` (single isomer, unassigned) [Example 55-8-2]: the IC50 worked out at 160 nM. The same measure, in the same setting: the same measure for `C=CC(=O)N1CCN(c2nc(=O)n(-c3ccccc3C(C)C)c3cc(-c4ccccc4F)c(Cl)cc23)CC1` (single isomer, unassigned) [Example 88-2, 6-chloro-7-(2 fluorophenyl)-1-(2-(2-propanyl)phenyl)-4-(4-(2-propenoyl)-1-piperazinyl)-2(1H)-quinazolinone]: 1650 nM. Still for that read-out and setting: the same measure for `C=CC(=O)N1CCN(c2nc(=O)n(-c3c(C)cccc3C(C)C)c3nc(-c4c(O)cccc4F)c(F)cc23)[C@@H](C)C1` (single isomer, unassigned) [Example 58-18-2]: 715 nM; for `C=CC(=O)N1CCN(c2nc(=O)n(-c3c(C(C)C)ccnc3C)c3nc(-c4c(O)cccc4F)c(Cl)cc23)[C@@H](C)C1` (single isomer, unassigned) [Example 54-17-1]: 413 nM.

Still in this experiment, the particulars now being: read-out: p-ERK IC50 (4 h; MIA PaCa-2), 4 h compound treatment.
For the compound `C=CC(=O)N1CCN(c2nc(=O)n(-c3ccccc3C(C)C)c3nc(-c4c(O)cccc4F)c(Cl)cc23)CC1` (single isomer, unassigned) [Example 60-24-2, (P)-6-chloro-7-(2-fluoro-6-hydroxyphenyl)-1-(2-(2-propanyl)phenyl)-4-(4-(2-propenoyl)-1-piperazinyl)pyrido[2,3-d]pyrimidin-2(1H)-one], the IC50 amounted to 976 nM.
